The compounds below were run on CFA-induced pain model (assay: Antiallodynic activity on Complete Freund's Adjuvant (CFA)-induced inflammatory pain model (von Frey)). Conditions: 60 mg/kg, 0.5 h, rat, intraperitoneal.
Format: in vivo, Sprague-Dawley rats
Description: Male, Sprague-Dawley rats (200-220 g, Nara Bio, Korea) were habituated for 1 week before surgery and allowed free access to food and water throughout the experimentation. Room temperature and humidity were maintained at 24±2° C. and 50±10%, respectively.
CFA-induced inflammatory pain was induced by the procedure of Nagakura et al. (2003) and Gregory P. et al. (2010) with minor modifications. CFA (sigma, USA) was injected in the left plantar with a 100 ul volume under gaseous anesthesia with isoflurane a 4:4 flow ratio of NO2 Sham controls were injected with 100 ul of saline and vehicle controls were identical to CFA infusion model, except for administration of vehicles.
Tactile sensitivity (Mechanical allodynia) was evaluated using von Frey monofilaments before and after treatment, and animals were used withdrawal threshold value was less than 4 g. One week after surgery, CFA-infused animals (n=4˜6), sham-operated animals (n=12), and vehicle-operated animals (n=17) were tested for tactile sensitivity with von Frey monofilaments 3 trials in each animal. All Animals were placed in a stainless steel mashed chamber and habituated for 30 min in the test box. The tactile sensitivity for ipsilateral hind paw was measured using the up-and-down method (Dixon, 1980) with seven von Frey monofilaments (0.4, 1, 2, 4, 6, 8, and 15 g) to 3 trials. Tactile sensitivity test was followed by Dixon's method (Dixon, 1980). The 50% paw withdrawal threshold for each paw was calculated using the following formula: [Xth] log=[vFr] log+ky where [vFr] is the force of the last von Frey used, k=0.2249 which is the average interval (in log units) between the von Frey monofilaments, and y is a value that depends upon the pattern of withdrawal responses (Dixon, 1980).
[…] The test was performed peak time of efficacy (0.5 hr) after compound administration.
The relative values compared to the sham (% control) were calculated and shown in Table 4, which show an antiallodynic effect of the compound of Examples on CFA-induced pain model in rats.

Structure (SMILES)	CFA model: effect (%) at the concentration administered
CC1(C)OC(COS(N)(=O)=O)C(c2ccccc2Cl)O1 (mixture of isomers) [Example 3, (5-(2-chlorophenyl)-2,2-dimethyl-1,3-dioxolan-4-yl)methyl sulfamate(SS & RR mixture)]	^#60 (24.0%, 0.5 h)
CC1(C)OC(COS(N)(=O)=O)C(c2ccccc2Cl)O1 (mixture of isomers) [Example 4, (5-(2-chlorophenyl)-2,2-dimethyl-1,3-dioxolan-4-yl)methyl sulfamate(SR & RS mixture)]	^#60 (49.9%, 0.5 h)

Same assay, conditions: Rattus norvegicus, ip, 0.5 h, 18 mg/kg, 0.5 h, rat, intraperitoneal; read-out: CFA model: effect (%) at the concentration administered

Structure (SMILES)	response vs control in vivo at 18 mg/kg [%]
NS(=O)(=O)OCC[C@@H]1OC2(CCCCC2)O[C@H]1c1ccccc1 [Example 136, 2-((2S,3S)-3-phenyl-1,4-dioxaspiro[4,5]decan-2-yl)ethyl sulfamate]	32.4
NS(=O)(=O)OCC[C@@H]1OC2(CCCC2)O[C@H]1c1ccccc1 [Example 134, 2-((2S,3S)-3-phenyl-1,4-dioxaspiro[4,4]nonan-2-yl)ethyl sulfamate]	71.1

Same assay, conditions: Rattus norvegicus, ip, 0.5 h, 40 mg/kg, 0.5 h, rat, intraperitoneal; read-out: CFA model: effect (%) at the concentration administered

Structure (SMILES)	response vs control in vivo at 40 mg/kg [%]
CC1(C)O[C@H](c2sc(Cl)nc2Cl)[C@@H](COS(N)(=O)=O)O1 [Example 163, ((4R,5S)-5-(2,4-dichlorothiazol-5-yl)-2,2-dimethyl-1,3-dioxolan-4-yl)methyl sulfamate]	23.1
CCC1(CC)O[C@H](COS(N)(=O)=O)[C@@H](Cc2ccccc2Cl)O1 [Example 148, ((4R,5R)-5-(2-chlorobenzyl)-2,2-diethyl-1,3-dioxolan-4-yl)methyl sulfamate]	15.5
CC1(C)O[C@@H](CCOS(N)(=O)=O)[C@H](c2ccccc2)O1 [Example 130, 2-((4S,5S)-5-phenyl-2,2-dimethyl-1,3-dioxolan-4-yl)ethyl sulfamate]	19.4
NS(=O)(=O)OC[C@H]1OC2(CCCC2)O[C@@H]1Cc1ccccc1 [Example 126, ((2R,3R)-3-benzyl-1,4-dioxaspiro[4,4]nonan-2-yl)methyl sulfamate]	43.5
CC1(C)O[C@H](CCOS(N)(=O)=O)[C@@H](Cc2ccccc2)O1 [Example 114, 2-((4R,5R)-5-benzyl-2,2-dimethyl-1,3-dioxolan-4-yl)ethyl sulfamate]	29.8
CCC1(CC)O[C@@H](COS(N)(=O)=O)[C@H](c2ccccc2Cl)O1 [Example 8, ((4S,5S)-5-(2-chlorophenyl)-2,2-diethyl-1,3-dioxolan-4-yl)methyl sulfamate]	23.3
CCC1(CC)O[C@@H](CCOS(N)(=O)=O)[C@H](c2ccccc2)O1 [Example 132, 2-((4S,5S)-5-phenyl-2,2-diethyl-1,3-dioxolan-4-yl)ethyl sulfamate]	24.8
CCC1(CC)O[C@@H](COS(N)(=O)=O)[C@H](c2ccccc2)O1 [Example 108, ((4S,5S)-5-phenyl-2,2-diethyl-1,3-dioxolan-4-yl)methyl sulfamate]	37.5
NS(=O)(=O)OC[C@@H]1OC2(CCCCC2)O[C@H]1c1ccccc1 [Example 112, ((2S,3S)-3-phenyl-1,4-dioxaspiro[4,5]decan-2-yl)methyl sulfamate]	41.1
NS(=O)(=O)OCC[C@H]1OC2(CCCCC2)O[C@@H]1Cc1ccccc1Cl [Example 144, 2-((2R,3R)-3-(2-chlorobenzyl)-1,4-dioxaspiro[4,5]decan-2-yl)ethyl sulfamate]	36.6
NS(=O)(=O)OCC[C@@H]1OC2(CCCCC2)O[C@H]1c1ccccc1Cl [Example 160, 2-((2S,3S)-3-(2-chlorophenyl)-1,4-dioxaspiro[4,5]decan-2-yl)ethyl sulfamate]	38.4
NS(=O)(=O)OC[C@H]1OC2(CCCC2)O[C@@H]1Cc1ccccc1Cl [Example 150, ((2R,3R)-3-(2-chlorobenzyl)-1,4-dioxaspiro[4,4]nonan-2-yl)methyl sulfamate]	17.6
NS(=O)(=O)OCC[C@@H]1OC2(CCCC2)O[C@H]1c1ccccc1Cl [Example 158, 2-((2S,3S)-3-(2-chlorophenyl)-1.4-dioxaspiro[4,4]nonan-2-yl)ethyl sulfamate]	29.8
CC1(C)O[C@@H](CCOS(N)(=O)=O)[C@H](c2ccccc2Cl)O1 [Example 154, 2-((4S,5S)-5-(2-chlorophenyl)-2,2-dimethyl-1,3-dioxolan-4-yl)ethyl sulfamate]	32.1
CCC1(CC)O[C@@H](COS(N)(=O)=O)[C@H](c2ccccc2N)O1 [Example 70, ((4S,5S)-5-(2-aminophenyl)-2,2-diethyl-1,3-dioxolan-4-yl)methyl sulfamate]	18.8

Same assay, conditions: Rattus norvegicus, ip, 0.5 h, 60 mg/kg, 0.5 h, rat, intraperitoneal; read-out: CFA model: effect (%) at the concentration administered

Structure (SMILES)	response vs control in vivo at 60 mg/kg [%]
CC1(C)OC(COS(N)(=O)=O)C(c2cnc(Cl)nc2)O1 (stereo not drawn) [Example 176, (2,2-dimethyl-5-(2-chloropyrimidin-5-yl)-1,3-dioxolan-4-yl)methyl sulfamate]	40
CC1(C)O[C@H](c2cnc(Cl)s2)[C@@H](COS(N)(=O)=O)O1 (stereo in doubt) [Example 166, ((4R,5S)-5-(2-chlorothiazol-5-yl)-2,2-dimethyl-1,3-dioxolan-4-yl)methyl sulfamate]	30.4
NS(=O)(=O)OC[C@@H]1OC2(CCCC2)O[C@H]1c1ccccc1Cl [Example 10, ((2S,3S)-3-(2-chlorophenyl)-1,4-dioxaspiro[4,4]nonan-2-yl)methyl sulfamate]	20.7
CC1(C)OC(COS(N)(=O)=O)C(c2cncnc2)O1 (stereo not drawn) [Example 175, 2,2-dimethyl-5-(pyrimidin-5-yl)-1,3-dioxolan-4-yl)methyl sulfamate]	44.4
Cc1nc(Cl)sc1[C@@H]1OC(C)(C)O[C@H]1COS(N)(=O)=O [Example 170, ((4S,5R)-2,2-dimethyl-5-(2-chloro-4-methylthiazol-5-yl)-1,3-dioxolan-4-yl)methyl sulfamate]	24.2
CC1(C)O[C@@H](COS(N)(=O)=O)[C@H](c2c(Cl)cccc2Cl)O1 [Example 52, ((4S,5S)-5-(2,6-dichlorophenyl)-2,2-dimethyl-1,3-dioxolan-4-yl)methyl sulfamate]	33.3
Cc1ncsc1[C@H]1OC(C)(C)O[C@@H]1COS(N)(=O)=O [Example 167, ((4R,5S)-2,2-dimethyl-5-(4-methylthiazol-5-yl)-1,3-dioxolan-4-yl)methyl sulfamate]	38.6
Cc1ncsc1[C@@H]1OC(C)(C)O[C@H]1COS(N)(=O)=O [Example 168, ((4S,5R)-2,2-dimethyl-5-(4-methylthiazol-5-yl)-1,3-dioxolan-4-yl)methyl sulfamate]	77.2
CC1(C)O[C@@H](COS(N)(=O)=O)[C@H](c2ccc(Cl)s2)O1 [Example 172, ((4S,5R)-2,2-dimethyl-5-(5-chlorothiophen-2-yl)-1,3-dioxolan-4-yl)methyl sulfamate]	35.9
NS(=O)(=O)OC[C@@H]1OC(=O)O[C@H]1c1ccccc1[N+](=O)[O-] [Example 90, ((4S, 5S)-5-(2-nitrophenyl)-2-oxo-1,3-dioxolan-4-yl)methyl sulfamate]	15.6
CC1(C)OC(COS(N)(=O)=O)C(c2cnccc2Cl)O1 (stereo not drawn) [Example 174, (5-(4-chloropyridin-3-yl)-2,2-dimethyl-1,3-dioxolan-4-yl)methyl sulfamate]	24.7
CC1O[C@@H](COS(N)(=O)=O)[C@H](c2ccccc2Cl)O1 (stereo partly drawn) [Example 6, ((4S,5S)-5-(2-chlorophenyl)-2-methyl-1,3-dioxolan-4-yl)methyl sulfamate]	22.4
CC1(C)O[C@@H](COS(N)(=O)=O)[C@H](c2ccc(Cl)cc2Cl)O1 [Example 40, ((4S,5S)-5-(2,4-dichlorophenyl)-2,2-dimethyl-1,3-dioxolan-4-yl)methyl sulfamate]	22.5
CC1(C)O[C@H](c2ccccc2Cl)[C@@H](COS(N)(=O)=O)O1 [Example 1, ((4R,5R)-5-(2-chlorophenyl)-2,2-dimethyl-1,3-dioxolan-4-yl)methyl sulfamate]	21.1

Same assay, conditions: Rattus norvegicus, ip, 1 h, 60 mg/kg, 1 h, rat, intraperitoneal; read-out: CFA model: effect (%) at the concentration administered

Structure (SMILES)	response vs control in vivo at 60 mg/kg [%]
CC1(C)O[C@@H](COS(N)(=O)=O)[C@H](c2ccccc2N)O1 [Example 66]	16.5

Same assay, conditions: ip; rat, intraperitoneal, von Frey, 0.5 h

Structure (SMILES)	ED50 [mg/kg]
CC1(C)O[C@H](c2cnc(Cl)s2)[C@@H](COS(N)(=O)=O)O1 [Example 165, ((4R,5S)-5-(2-chlorothiazol-5-yl)-2,2-dimethyl-1,3-dioxolan-4-yl)methyl sulfamate]	> 60

Same assay, conditions: rat, intraperitoneal, noted with ED50 >60 mg/kg

Structure (SMILES)	CFA model: adverse observation
CC1(C)O[C@H](c2cnc(Cl)s2)[C@@H](COS(N)(=O)=O)O1 [Example 165, ((4R,5S)-5-(2-chlorothiazol-5-yl)-2,2-dimethyl-1,3-dioxolan-4-yl)methyl sulfamate]	Seizure

Source: US9834535B2, “Sulfamate derivative compounds for use in treating or alleviating pain” (Bio-Pharm Solutions Co., Ltd., priority 2013, dated 2017)
